Data on 15 compounds can be found in ChEMBL document CHEMBL1121488, “Effects of phosphonium compounds on Schistosoma mansoni” (1980).

The subject of test [1] is Schistosoma mansoni. In words: Effect on the carbachol-induced paralytic response on Schistosoma mansoni at 10E-4 (phosphonium treated). Format: functional. On the set-up: unit not given here.
For test [2], the system named is Schistosoma mansoni. As to the kind of experiment: Percentage reduction in carbachol response on Schistosoma mansoni. Format: functional.
In test [3] the test system is Schistosoma mansoni. As to the kind of experiment: Probability that there was effect on carbachol response. Format: functional.
For test [4], the system named is Schistosoma mansoni. As to the kind of experiment: Probability that the compound had no effect on carbachol response; NS = no significant. The format is functional, organism-based.

In the case of `Br.Br.CCCCNCCC[PH](c1ccccc1)(c1ccccc1)c1ccccc1`, the Activity in test [1] is -70.3. The compound also yielded a Reduction in test [2] of 22.8%. The compound also displayed a Probability in test [3] of less than 0.001.

With `Br.Br.CCCCCNCCC[PH](c1ccccc1)(c1ccccc1)c1ccccc1`, the Activity in test [1] is listed as -31.8. In addition, the Reduction in test [2] amounted to 58.2%. Also, in test [3], the Probability is reported as less than 0.001.

For the compound `[Br-].[Br-].c1ccc([P+](CCCCCC[P+](c2ccccc2)(c2ccccc2)c2ccccc2)(c2ccccc2)c2ccccc2)cc1`, the Activity in test [1] is given as -4.6. Also, in test [2], the Reduction is given as 94.3%. The same compound gave a Probability in test [3] of less than 0.001.

For the compound `[Br-].[Br-].c1ccc([P+](CCCCC[P+](c2ccccc2)(c2ccccc2)c2ccccc2)(c2ccccc2)c2ccccc2)cc1`, in test [1], the Activity is reported as -19.7. The same compound registered a Reduction in test [2] of 76.1%. The Probability in test [3] is reported as less than 0.001.

As to `Br.Br.NCC[PH](c1ccccc1)(c1ccccc1)c1ccccc1`, the Activity in test [1] is reported as -67.8. The compound further registered a Reduction in test [2] of 14.6%. Further, in test [4], the Probability result was “No significance”.

The compound `CC[P+](c1ccccc1)(c1ccccc1)c1ccccc1.[Br-]` [ETHYLTRIPHENYLPHOSPHONIUM BROMIDE] returned an Activity in test [1] of -63.8. The same compound showed a Reduction in test [2] of 27%. The same compound returned a Probability in test [3] of less than 0.02.

In turn, `BrCCC[P+](c1ccccc1)(c1ccccc1)c1ccccc1.[Br-]` came in with an Activity in test [1] of -35. The Reduction in test [2] amounted to 45.3%. In addition, the Probability in test [3] was less than 0.01.

In test [1], `N#CCCC[P+](c1ccccc1)(c1ccccc1)c1ccccc1.[Br-]` yielded an Activity of -73. The compound also showed a Reduction in test [2] of 10.3%. Also, in test [4], the Probability result is “No significance”.

In turn, `Br.Br.CCCNCCC[PH](c1ccccc1)(c1ccccc1)c1ccccc1` returned an Activity in test [1] of -71.7. The compound also yielded a Reduction in test [2] of 0.97%. In addition, the Probability result in test [4] was “No significance”.

`Br.Br.CCNCCC[PH](c1ccccc1)(c1ccccc1)c1ccccc1`: the Activity in test [1] was -72. In test [2], this compound came in with a Reduction of 18.6%. The compound further displayed a Probability in test [3] of less than 0.05.

As to `[Br-].c1ccc(C[P+](c2ccccc2)(c2ccccc2)c2ccccc2)cc1`, the Activity in test [1] was -55.1. For the same compound, in test [2], the Reduction amounted to 27.1%. The Probability in test [3] is recorded as less than 0.05.

Turning to `Br.Br.NCCCCC[PH](c1ccccc1)(c1ccccc1)c1ccccc1`, in test [1], the Activity was -81.3. The Reduction in test [2] worked out at 13.1%. Further, the Probability in test [3] is given as less than 0.05.

Regarding `[Br-].[Br-].c1ccc([P+](CCC[P+](c2ccccc2)(c2ccccc2)c2ccccc2)(c2ccccc2)c2ccccc2)cc1`, the Activity in test [1] is recorded as 2. In addition, the Reduction in test [2] was determined as 102.6%. In test [3], this compound showed a Probability of less than 0.001.

Consider `Br.Br.CCCCCCNCCC[PH](c1ccccc1)(c1ccccc1)c1ccccc1`, for which the Activity in test [1] is on record as -35.4. For the same compound, the Reduction in test [2] turned out to be 62.4%. In addition, the Probability in test [3] was less than 0.0001.

The compound `[Br-].[Br-].c1ccc([P+](CC[P+](c2ccccc2)(c2ccccc2)c2ccccc2)(c2ccccc2)c2ccccc2)cc1` returned an Activity in test [1] of 13.3. The compound also yielded a Reduction in test [2] of 117.8%. In test [3], this compound registered a Probability of less than 0.001.
